In the test the target is T1, wild-type HIV-1 protease (Human immunodeficiency virus type 1 group M subtype B, UniProt P04585).
T1 construct: Escherichia coli expressed wild-type HIV-1 protease protein
Nature of the test: Assay for Inhibition of Microbial Expressed HIV Protease (peptide substrate cleavage, LC-MS/MS readout). The test is classed as biochemical. The note with it: E. coli expressed wild-type HIV-1 protease, mean of at least two independent experiments, read-out: HIV Pr Enzyme HIV1 PR IC50. The method, boiled down:
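Cleavage of Val-Ser-Gln-Asn-(β-naphthyl)Ala-Pro-Ile-Val (400 μM) by recombinant HIV-1 protease ([…]) ran 1 h at 30 °C after a 30 min room-temperature inhibitor preincubation in 50 mM sodium acetate pH 5.5. Product peak areas by LC-MS/MS gave inhibition; values average at least two independent runs.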

SMILES strings stand for the structures. pIC50: −log10 of the molar value.

Turning to `CC(C)CCC1(c2ccccc2)NC(=N)N(Cc2ccc(C(F)(F)F)c(C(=O)N3Cc4cncnc4C3)c2)C1=O` (centres unmarked) [Compound 152, 3-[3-(5,7-dihydro-6H-pyrrolo[3,4-d]pyrimidin-6-ylcarbonyl)-4-(trifluoromethyl)benzyl]-2-imino-5-(3-methylbutyl)-5-phenylimidazolidin-4-one], the pIC50 (as a rule, −log10 of the IC50, conventionally taken in molar units) was 8.11. Consider `N=C1N[C@](CCCC(F)(F)F)(c2ccc(F)cc2)C(=O)N1Cc1ccc(C(F)(F)F)c(C(=O)N2Cc3cnc(-c4cnc(-c5ccc(F)cc5)o4)nc3C2)c1` [Compound 113, (5R)-5-(4-fluorophenyl)-3-[3-({2-[2-(4-fluorophenyl)-1,3-oxazol-5-yl]-5,7-dihydro-6H-pyrrolo[3,4-d]pyrimidin-6-yl}carbonyl)-4-(trifluoromethyl)benzyl]-2-imino-5-(4,4,4-trifluorobutyl)imidazolidin-4-one], for which the pIC50 is 7.50. As for `N#Cc1cccc(-c2cccc(C3(c4ccc(F)cc4)NC(=N)N(Cc4cccc(C(=O)N5Cc6ccccc6C5)c4)C3=O)c2)c1` (centres unmarked) [Compound 292, 3′-{1-[3-(1,3-dihydro-2H-isoindol-2-ylcarbonyl)benzyl]-4-(4-fluorophenyl)-2-imino-5-oxoimidazolidin-4-yl}biphenyl-3-carbonitrile], the pIC50 was 7.41. For `CS(=O)(=O)c1cccc(-c2ncc3c(n2)CN(C(=O)c2cc(CN4C(=N)N[C@](CCCC(F)(F)F)(c5ccc(F)cc5)C4=O)ccc2C(F)(F)F)C3)c1` [Compound 24, (5R)-5-(4-fluorophenyl)-2-imino-3-[3-({2-[3-(methylsulfonyl)phenyl]-5,7-dihydro-6H-pyrrolo[3,4-d]pyrimidin-6-yl}carbonyl)-4-(trifluoromethyl)benzyl]-5-(4,4,4-trifluorobutyl)imidazolidin-4-one], the pIC50 is 8.62.

Turning to `CC(C)CC1(c2ccccc2)NC(=N)N(Cc2ccc(C(F)(F)F)c(C(=O)N3Cc4cncnc4C3)c2)C1=O` (centres unmarked) [Compound 150, 3-[3-(5,7-dihydro-6H-pyrrolo[3,4-d]pyrimidin-6-ylcarbonyl)-4-(trifluoromethyl)benzyl]-2-imino-5-(2-methylpropyl)-5-phenylimidazolidin-4-one], the pIC50 was 8.26. Under `N=C1NC(c2ccccc2)(c2ccccc2)C(=O)N1Cc1ccc(F)c(C(=O)N2Cc3cccnc3C2)c1` [Compound 386, 3-[3-(5,7-dihydro-6H-pyrrolo[3,4-b]pyridin-6-ylcarbonyl)-4-fluorobenzyl]-2-imino-5,5-diphenylimidazolidin-4-one] stands 7.55.

As for `COC(=O)Nc1ncc2c(n1)CN(C(=O)c1cccc(CN3C(=N)N[C@](CCC(C)C)(c4ccccc4)C3=O)c1)C2` [Compound 183, methyl {6-[(3-{[(4R)-2-imino-4-(3-methylbutyl)-5-oxo-4-phenylimidazolidin-1-yl]methyl}phenyl)carbonyl]-6,7-dihydro-5H-pyrrolo[3,4-d]pyrimidin-2-yl}carbamate], the pIC50 was 8.65.

As to `CC(C)CCC1(c2ccccc2)NC(=N)N(Cc2ccc(C(F)(F)F)c(C(=O)N3CCC(n4c(=O)[nH]c5ccccc54)CC3)c2)C1=O` (centres unmarked) [Compound 155, 1-(1-{[5-{[2-imino-4-(3-methylbutyl)-5-oxo-4-phenyl-imidazolidin-1-yl]methyl}-2-(trifluoromethyl)phenyl]carbonyl}piperidin-4-yl)-1,3-dihydro-2H-benzimidazol-2-one], the pIC50 was 7.95. As to `CC(=O)N1CCN(C(=O)c2cc(F)cc(CN3C(=N)NC(c4ccccc4)(c4ccccc4)C3=O)c2)CC1` [Compound 323, 3-{3-[(4-acetylpiperazin-1-yl)carbonyl]-5-fluorobenzyl}-2-imino-5,5-diphenylimidazolidin-4-one], the pIC50 is 7.24. On to `N=C1NC(c2ccc(F)cc2)(c2ccc(F)cc2)C(=O)N1Cc1ccc(Cl)c(C(=O)N2Cc3cncnc3C2)c1` [Compound 376, 3-[4-chloro-3-(5,7-dihydro-6H-pyrrolo[3,4-d]pyrimidin-6-ylcarbonyl)benzyl]-5,5-bis(4-fluorophenyl)-2-iminoimidazolidin-4-one], for which the pIC50 was 8.02. `C=Cc1c(C(F)(F)F)nc2n1CCN(C(=O)c1cccc(CN3C(=N)NC(c4ccccc4)(c4ccccc4)C3=O)c1)C2` [Compound 297, 3-(3-{[3-ethenyl-2-(trifluoromethyl)-5,6-dihydroimidazo [1,2-a]pyrazin-7(8H)-yl]carbonyl}benzyl)-2-imino-5,5-diphenylimidazolidin-4-one]: the pIC50 is 7.36.

Turning to `Cc1cc(CN2C(=N)NC(c3ccc(F)cc3)(c3ccc(F)cc3)C2=O)cc(C(=O)N2Cc3nccnc3C2)n1` [Compound 406, 3-{[2-(5,7-dihydro-6H-pyrrolo[3,4-b]pyrazin-6-ylcarbonyl)-6-methylpyridin-4-yl]methyl}-5,5-bis(4-fluorophenyl)-2-iminoimidazolidin-4-one], the pIC50 was 7.98.

For the molecule `CN(C)c1ccc(-c2ncc3c(n2)CN(C(=O)c2cc(CN4C(=N)N[C@](CCCC(F)(F)F)(c5ccc(F)cc5)C4=O)ccc2C(F)(F)F)C3)cn1` [Compound 16, (5R)-3-[3-({2-[6-(dimethylamino)pyridin-3-yl]-5,7-dihydro-6H-pyrrolo[3,4-d]pyrimidin-6-yl}carbonyl)-4-(trifluoromethyl)benzyl]-5-(4-fluorophenyl)-2-imino-5-(4,4,4-trifluorobutyl)imidazolidin-4-one], the pIC50 was 8.70.

Regarding `CC1c2cc(Cl)c(Cl)cc2CN1C(=O)c1cccc(CN2C(=N)NC(c3ccccc3)(c3ccccc3)C2=O)c1` (centres unmarked) [Compound 322, 3-{3-[(5,6-dichloro-1-methyl-1,3-dihydro-2H-isoindol-2-yl)carbonyl]benzyl}-2-imino-5,5-diphenylimidazolidin-4-one], the pIC50 is 7.24. In the case of `N#Cc1ncc2c(n1)CN(C(=O)c1cc(CN3C(=N)NC(c4ccc(F)cc4)(c4ccc(F)cc4)C3=O)ccc1C(F)(F)F)C2` [Compound 134, 6-{[5-{[4,4-bis(4-fluorophenyl)-2-imino-5-oxoimidazolidin-1-yl]methyl}-2-(trifluoromethyl)-phenyl]carbonyl}-6,7-dihydro-5H-pyrrolo[3,4-d] pyrimidine-2-carbonitrile], the pIC50 was 8.97. To `CC(C)CCC1(c2ccc(F)cc2)NC(=N)N(Cc2ccc(C(F)(F)F)c(C(=O)N3Cc4nccnc4C3)c2)C1=O` (centres unmarked) [Compound 168, 3-[3-(5,7-dihydro-6H-pyrrolo[3,4-b]pyrazin-6-ylcarbonyl)-4-(trifluoromethyl)benzyl]-5-(4-fluorophenyl)-2-imino-5-(3-methylbutyl)imidazolidin-4-one] belongs 7.41; to `CC(C)CC[C@]1(c2ccccc2)NC(=N)N([C@H](C)c2ccc(C(F)(F)F)c(C(=O)N3Cc4nccnc4C3)c2)C1=O` [Compound 141, (5R)-3-{(1R)-1-[3-(5,7-dihydro-6H-pyrrolo[3,4-b]pyrazin-6-ylcarbonyl)-4-(trifluoromethyl)phenyl]ethyl}-2-imino-5-(3-methylbutyl)-5-phenylimidazolidin-4-one], 8.52.

The record behind these values is patent US20200069691A1, “HETEROCYCLIC COMPOUNDS AS HIV PROTEASE INHIBITORS” (Merck Sharp & Dohme Corp., priority 2016, published 2020).
